US11566007B2, “Ras inhibitors” (Revolution Medicines, Inc., priority 2019, dated 2023)
Read-outs that look alike come from different tables or passages of the source.

Tests used:
K-Ras G12C = K-Ras G12C (Homo sapiens (Human), UniProt P01116+P62937, G12C); assay: Ras-Raf (BRAF RBD) disruption / FRET / MOA assay, KRAS G12C; assay type: biochemical; details: KRAS G12C; Ras-Raf disruption/FRET/MOA assay; read-out: IC50* KRAS G12C FRET data
Outline: (§1)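 TR-FRET read-out: a drop in ratio relative to DMSO wells marks disruption of the Ras:RAF complex, reported as IC50. Compounds (3-fold series, 10 points, top 30 μM final) incubated 3 h at 25° C before Eu-anti-His 10 nM and APC-anti-GST 50 nM, 1.5 h more.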

KRAS G12S = KRAS G12S (Homo sapiens (Human), UniProt P01116+P62937, G12S); assay: Ras-Raf (BRAF RBD) disruption / FRET / MOA assay, KRAS G12S; assay type: biochemical; details: Ras-Raf disruption/FRET/MOA assay; class symbols; read-out: KRAS G12S FRET data IC50
Chain of KRAS G12S (P01116-2 other isoform, or with tags, fused parts or gaps G12S): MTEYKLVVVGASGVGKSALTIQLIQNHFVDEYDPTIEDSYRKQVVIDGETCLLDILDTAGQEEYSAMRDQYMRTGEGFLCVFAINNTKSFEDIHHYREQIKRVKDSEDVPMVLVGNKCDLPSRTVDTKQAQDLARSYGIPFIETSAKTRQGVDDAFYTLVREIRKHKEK
Chain of KRAS G12S (P62937 whole entry): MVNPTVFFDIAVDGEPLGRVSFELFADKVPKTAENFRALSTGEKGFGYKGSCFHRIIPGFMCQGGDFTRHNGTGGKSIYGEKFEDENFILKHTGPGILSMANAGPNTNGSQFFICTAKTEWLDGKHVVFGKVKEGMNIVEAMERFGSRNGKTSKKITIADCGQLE
Outline: as §1

NRAS G12C = NRAS G12C (Homo sapiens (Human), UniProt P01111+P62937, G12C); assay: Ras-Raf (BRAF RBD) disruption / FRET / MOA assay, NRAS G12C; assay type: biochemical; details: read-out: IC50* NRAS G12C FRET data
Chain of NRAS G12C (P01111 whole entry G12C): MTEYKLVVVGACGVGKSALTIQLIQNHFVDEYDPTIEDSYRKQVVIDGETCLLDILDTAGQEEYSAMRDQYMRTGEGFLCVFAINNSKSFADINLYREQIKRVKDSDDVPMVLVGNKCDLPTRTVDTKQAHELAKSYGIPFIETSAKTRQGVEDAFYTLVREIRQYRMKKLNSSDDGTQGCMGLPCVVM
Chain of NRAS G12C (P62937 whole entry): as the sequence (P62937 whole entry) above
Outline: as §1

NCI-H358 (K-Ras G12C) = assay: CellTiter-Glo cell viability assay, NCI-H358; assay type: cell-based, human; details: NCI-H358, 5-day treatment, class symbols, read-out: Additional H358 Cell Viability assay data (K-Ras G12C, IC50)
Outline: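 Compounds dispensed directly onto seeded K-Ras mutant cells; plates read on day 5 after ~30 min equilibration to room temperature, by CellTiter-Glo luminescence. Signal normalized as (sample/mean DMSO)×100, then fitted to a four-parameter logistic curve.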

KRAS G12V = KRAS G12V (Homo sapiens (Human), UniProt P01116+P62937, G12V); assay: Ras-Raf (BRAF RBD) disruption / FRET / MOA assay, KRAS G12V; assay type: biochemical; details: read-out: IC50* KRAS G12V FRET data
Chain of KRAS G12V (P01116-2 other isoform, or with tags, fused parts or gaps G12V): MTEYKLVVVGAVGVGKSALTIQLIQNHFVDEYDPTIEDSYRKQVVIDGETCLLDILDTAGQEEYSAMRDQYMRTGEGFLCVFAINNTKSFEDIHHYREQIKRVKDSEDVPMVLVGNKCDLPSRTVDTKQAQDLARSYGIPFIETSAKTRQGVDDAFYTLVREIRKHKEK
Chain of KRAS G12V (P62937 whole entry): as the sequence (P62937 whole entry) above
Outline: as §1

[1] = tested on: NCI-H358 cells (K-Ras G12C); assay: Potency assay: pERK in NCI-H358 cells; assay type: cell-based, human; details: Homo sapiens, NCI-H358; H358 KRAS G12C; read-out: pERK EC50
Outline: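 pERK decrease read by AlphaLISA SureFire p-ERK1/2 or In-Cell Western after 4 h compound exposure at 37 °C, 5% CO2.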

KRAS WT = KRAS WT (Homo sapiens (Human), UniProt P01116+P62937); assay: Ras-Raf (BRAF RBD) disruption / FRET / MOA assay, KRAS WT; assay type: biochemical; details: read-out: IC50* KRAS WT FRET data
Chain of KRAS WT (P01116-2 other isoform, or with tags, fused parts or gaps): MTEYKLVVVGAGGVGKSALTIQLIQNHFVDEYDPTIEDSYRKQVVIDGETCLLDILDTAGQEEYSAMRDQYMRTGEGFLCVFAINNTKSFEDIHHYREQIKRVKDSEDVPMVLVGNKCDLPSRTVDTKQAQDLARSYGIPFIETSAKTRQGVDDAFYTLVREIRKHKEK
Chain of KRAS WT (P62937 whole entry): as the sequence (P62937 whole entry) above
Outline: as §1

KRAS G13D = KRAS G13D (Homo sapiens (Human), UniProt P01116+P62937, G13D); assay: Ras-Raf (BRAF RBD) disruption / FRET / MOA assay, KRAS G13D; assay type: biochemical; details: read-out: IC50* KRAS G13D FRET data
Chain of KRAS G13D (P01116-2 other isoform, or with tags, fused parts or gaps G13D): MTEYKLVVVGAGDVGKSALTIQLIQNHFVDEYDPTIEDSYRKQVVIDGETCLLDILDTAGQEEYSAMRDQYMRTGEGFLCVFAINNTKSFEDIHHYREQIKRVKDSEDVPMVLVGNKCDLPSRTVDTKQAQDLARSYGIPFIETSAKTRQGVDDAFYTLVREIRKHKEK
Chain of KRAS G13D (P62937 whole entry): as the sequence (P62937 whole entry) above
Outline: as §1

K-Ras G13C = K-Ras G13C (Homo sapiens (Human), UniProt P01116+P62937, G13C); assay: Ras-Raf (BRAF RBD) disruption / FRET / MOA assay, KRAS G13C; assay type: biochemical; details: KRAS G13C; Ras-Raf disruption/FRET/MOA assay; read-out: IC50* KRAS G13C FRET data
Chain of K-Ras G13C (P01116-2 other isoform, or with tags, fused parts or gaps G13C): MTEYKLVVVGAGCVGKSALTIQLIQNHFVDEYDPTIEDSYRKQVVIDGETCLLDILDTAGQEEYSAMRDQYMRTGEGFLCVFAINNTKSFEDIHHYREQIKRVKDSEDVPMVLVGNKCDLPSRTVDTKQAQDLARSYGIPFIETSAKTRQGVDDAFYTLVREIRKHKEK
Chain of K-Ras G13C (P62937 whole entry): as the sequence (P62937 whole entry) above
Outline: as §1

KRAS G12D = KRAS G12D (Homo sapiens (Human), UniProt P01116+P62937, G12D); assay: Ras-Raf (BRAF RBD) disruption / FRET / MOA assay, KRAS G12D; assay type: biochemical; details: Ras-Raf disruption/FRET/MOA assay; class symbols; read-out: KRAS G12D FRET data IC50
Chain of KRAS G12D (P01116-2 other isoform, or with tags, fused parts or gaps G12D): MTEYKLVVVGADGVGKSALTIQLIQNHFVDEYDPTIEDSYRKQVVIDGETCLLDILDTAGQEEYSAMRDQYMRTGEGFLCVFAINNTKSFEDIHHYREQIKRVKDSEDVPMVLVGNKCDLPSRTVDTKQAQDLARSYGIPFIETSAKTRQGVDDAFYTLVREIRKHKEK
Chain of KRAS G12D (P62937 whole entry): as the sequence (P62937 whole entry) above
Outline: as §1

Chain of K-Ras G12C (P01116-2 other isoform, or with tags, fused parts or gaps G12C): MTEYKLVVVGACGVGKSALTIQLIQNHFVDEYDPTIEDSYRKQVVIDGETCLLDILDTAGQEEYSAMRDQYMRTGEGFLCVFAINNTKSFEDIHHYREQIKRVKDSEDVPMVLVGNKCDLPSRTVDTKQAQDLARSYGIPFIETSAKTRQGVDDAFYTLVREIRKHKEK
Chain of K-Ras G12C (P62937 whole entry): as the sequence (P62937 whole entry) above

Row | Compound | IC50 (K-Ras G12C) | IC50 (KRAS G12S) | IC50 (NRAS G12C) | IC50 (NCI-H358 (K-Ras G12C); Homo sapiens, NCI-H358, 120 h) | IC50 (KRAS G12V) | EC50 [1] | IC50 (KRAS WT) | IC50 (KRAS G13D) | IC50 (K-Ras G13C) | IC50 (KRAS G12D) | IC50 (NCI-H358 (K-Ras G12C))
1 | CCn1c(-c2cccnc2)c2c3cc(ccc31)-c1cc(O)cc(c1)C[C@H](NC(=O)[C@H](C(C)C)N(C)C(=O)[C@H]1CCN(C(=O)C#CCN(C)C)C1)C(=O)N1CCC[C@H](N1)C(=O)OCC(C)(C)C2 [Example A142] | 10 to 100 nM | > 10000 nM | 10 to 100 nM | 100 to 1000 nM | > 10000 nM | < 5000 nM | > 10000 nM | 1000 to 10000 nM | 100 to 1000 nM | 1000 to 10000 nM | 
2 | C=CC(=O)N1CCN(C(=O)N(C)[C@H](C(=O)N[C@H]2Cc3cc(O)cc(c3)-c3ccc4c(c3)c(c(-c3ccccc3CCOC)n4CC)CC(C)(C)COC(=O)[C@@H]3CCCN(N3)C2=O)C(C)C)C[C@H]1COC [Example A146] | 100 to 1000 nM | 1000 to 10000 nM | 100 to 1000 nM | 100 to 1000 nM | 1000 to 10000 nM | < 5000 nM | 1000 to 10000 nM | 1000 to 10000 nM | 100 to 1000 nM | > 10000 nM | 
3 | C=CC(=O)N(C)CC(=O)N(C)[C@H](C(=O)N[C@H]1Cc2cc(O)cc(c2)-c2ccc3c(c2)c(c(-c2cccnc2COC)n3CC)CC(C)(C)COC(=O)[C@@H]2CCCN(N2)C1=O)C(C)C [Example A147] | 100 to 1000 nM | 100 to 1000 nM | 100 to 1000 nM | 10 to 100 nM | 100 to 1000 nM | < 5000 nM | 100 to 1000 nM | 1000 to 10000 nM | 100 to 1000 nM | 1000 to 10000 nM | 
4 | C#CC(=O)N1CC[C@H](C(=O)N(C)[C@H](C(=O)N[C@H]2Cc3cc(O)cc(c3)-c3ccc4c(c3)c(c(-c3cnccc3[C@H](C)OC)n4CC)CC(C)(C)COC(=O)[C@@H]3CCCN(N3)C2=O)C(C)C)C1 [Example A150] | 10 to 100 nM | 100 to 1000 nM | 10 to 100 nM | < 10 nM | 100 to 1000 nM | < 5000 nM | 100 to 1000 nM | 100 to 1000 nM | 10 to 100 nM | 1000 to 10000 nM | 
5 | CCn1c(-c2cccnc2)c2c3cc(ccc31)-c1cccc(c1)C[C@H](NC(=O)[C@H](C(C)C)N(C)C(=O)[C@H]1CCN(C(=O)C#CCN(C)C)C1)C(=O)N1CCC[C@H](N1)C(=O)OCC(C)(C)C2 [Example A152] | 10 to 100 nM | > 10000 nM | 10 to 100 nM | 10 to 100 nM | 1000 to 10000 nM | < 5000 nM | 1000 to 10000 nM | 1000 to 10000 nM | 1000 to 10000 nM | 1000 to 10000 nM | 
6 | CCn1c(-c2cnccc2COC)c2c3cc(ccc31)-c1cc(O)cc(c1)C[C@H](NC(=O)[C@H](C(C)C)N(C)C(=O)[C@H]1CCN(C(=O)C(C)(C)N(C)C)C1)C(=O)N1CCC[C@H](N1)C(=O)OCC(C)(C)C2 [Example A153] | 10 to 100 nM | 100 to 1000 nM | 10 to 100 nM | 100 to 1000 nM | 100 to 1000 nM | < 5000 nM | 100 to 1000 nM | 100 to 1000 nM | 100 to 1000 nM | 100 to 1000 nM | 
7 | C=CC(=O)N1CC[C@H](C(=O)N(C)[C@H](C(=O)N[C@H]2Cc3cc(O)cc(c3)-c3ccc4c(c3)c(c(-c3cn(C)nc3[C@H](C)OC)n4CC)CC(C)(C)COC(=O)[C@@H]3CCCN(N3)C2=O)C(C)C)C1 [Example A154] | 10 to 100 nM | 100 to 1000 nM | 10 to 100 nM | 10 to 100 nM | 100 to 1000 nM | < 5000 nM | 1000 to 10000 nM | 1000 to 10000 nM | 1000 to 10000 nM | 1000 to 10000 nM | 
8 | CCn1c(-c2cccnc2COC)c2c3cc(ccc31)-c1cc(C)cc(c1)C[C@H](NC(=O)[C@H](C(C)C)N(C)C(=O)[C@H]1CCN(C(=O)C#CCN(C)C)C1)C(=O)N1CCC[C@H](N1)C(=O)OCC(C)(C)C2 [Example A156] | 10 to 100 nM | > 10000 nM | 100 to 1000 nM | 10 to 100 nM | > 10000 nM | < 5000 nM | > 10000 nM | 1000 to 10000 nM | 1000 to 10000 nM | 1000 to 10000 nM | 
9 | C=CC(=O)N1C[C@@H](C(=O)N(C)[C@H](C(=O)N[C@H]2Cc3cc(O)cc(c3)-c3ccc4c(c3)c(c(-c3cccnc3COC)n4CC)CC(C)(C)COC(=O)[C@@H]3CCCN(N3)C2=O)C(C)C)C[C@H]1C [Example A158] | 10 to 100 nM | 100 to 1000 nM | 10 to 100 nM | 10 to 100 nM | 1000 to 10000 nM | < 5000 nM | 100 to 1000 nM | 100 to 1000 nM | 100 to 1000 nM | > 10000 nM | 
10 | C=CC(=O)N1C[C@@H](C(=O)N(C)[C@@H](C(=O)N[C@H]2Cc3cc(O)cc(c3)-c3ccc4c(c3)c(c(-c3cccnc3COC)n4CC)CC(C)(C)COC(=O)[C@@H]3CCCN(N3)C2=O)C(C)C)C[C@H]1C [Example A159] | 100 to 1000 nM | 1000 to 10000 nM | 100 to 1000 nM | 100 to 1000 nM | 1000 to 10000 nM | < 5000 nM | 1000 to 10000 nM | 1000 to 10000 nM | > 10000 nM | > 10000 nM | 
11 | CCn1c(-c2cccnc2COC)c2c3cc(ccc31)-c1cc(O)cc(c1)C[C@H](NC(=O)[C@H](C(C)C)N(C)C(=O)[C@@H]1CCN(C(=O)C#CC(C)(C)N(C)C)C1)C(=O)N1CCC[C@H](N1)C(=O)OCC(C)(C)C2 [Example A162] | < 10 nM | 1000 to 10000 nM | < 10 nM | < 10 nM | 100 to 1000 nM | < 5000 nM | 1000 to 10000 nM | 1000 to 10000 nM | 100 to 1000 nM | 1000 to 10000 nM | 
12 | CCn1c(-c2cccnc2COC)c2c3cc(ccc31)-c1cc(O)cc(c1)C[C@H](NC(=O)[C@H](C(C)C)N(C)C(=O)[C@H]1CCC(C(=O)/C=C\CN(C)C)C1)C(=O)N1CCC[C@H](N1)C(=O)OCC(C)(C)C2 (stereo partly drawn) [Example A164] | 10 to 100 nM | 100 to 1000 nM | 10 to 100 nM |  | 100 to 1000 nM | < 5000 nM | 100 to 1000 nM | 100 to 1000 nM | 100 to 1000 nM | 1000 to 10000 nM | 100 to 1000 nM
13 | CCn1c(-c2cccnc2COC)c2c3cc(ccc31)-c1cc(O)cc(c1)C[C@H](NC(=O)[C@@H](C(C)C)N(C)C(=O)[C@H]1C[C@@H](C)N(C(=O)C#CCN(C)C)C1)C(=O)N1CCC[C@H](N1)C(=O)OCC(C)(C)C2 [Example A165] | 10 to 100 nM | > 10000 nM | 10 to 100 nM | 10 to 100 nM | > 10000 nM | < 5000 nM | > 10000 nM | > 10000 nM | 100 to 1000 nM | > 10000 nM | 
14 | CC#CC(=O)N1CC[C@@H](C(=O)N(C)[C@H](C(=O)N[C@H]2Cc3cc(O)cc(c3)-c3ccc4c(c3)c(c(-c3cncnc3)n4CC)CC(C)(C)COC(=O)[C@@H]3CCCN(N3)C2=O)C(C)C)C1 [Example A169] | 100 to 1000 nM | 1000 to 10000 nM | 100 to 1000 nM | 100 to 1000 nM | 1000 to 10000 nM | < 5000 nM | 1000 to 10000 nM | > 10000 nM | 1000 to 10000 nM | > 10000 nM | 
15 | CCn1c(-c2cccnc2COC)c2c3cc(ccc31)-c1cc(O)cc(c1)C[C@H](NC(=O)[C@H](C(C)C)N(C)C(=O)[C@H]1C[C@@H](C)N(C(=O)C#CCN(C)C)C1)C(=O)N1CCC[C@H](N1)C(=O)OCC(C)(C)C2 [Example A175] | < 10 nM | 1000 to 10000 nM | < 10 nM | < 10 nM | 1000 to 10000 nM | < 5000 nM | 1000 to 10000 nM | 1000 to 10000 nM | < 10 nM | 1000 to 10000 nM | 
